Earlier results, collected in patent publication US11053214B2, “Compositions and methods related to pyridinoylpiperidine 5-HT1F agonists” (COLUCID PHARMACEUTICALS, INC., priority 2016, dated 2021).

Experiments:
[1] = test system: other 5-HT1 receptor subtypes
rabbit saphenous vein = conditions: concentrations up to 0.1 mM
migraine = conditions: early clinical proof-of-concept study

SMILES | affinity higher for 5-HT1F receptors than for other 5-HT1 receptor subtypes [1] | constriction of rabbit saphenous vein (rabbit saphenous vein) | efficacy in the acute treatment of migraine (migraine)
CN1CCC(C(=O)c2cccc(NC(=O)c3c(F)cc(F)cc3F)n2)CC1.O=C(O)CCC(=O)O [Compound I, hemisuccinate salt of 2,4,6-trifluoro-N-[6-(1-methyl-piperidine-4-carbonyl)-pyridin-2-yl]-benzamide] | more than 450 fold | did not constrict | –
CN1CCC(c2c[nH]c3ccc(NC(=O)c4ccc(F)cc4)cc23)CC1 [LY334370] | – | – | proved effective
